Data as given in PubChem BioAssay (NCI).
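GI50 = concentration required for 50% inhibition of growth. TGI is the concentration that stops growth completely.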

How the values were obtained:
Assay in all cases: DTP human tumour cell line panel, 384-well format
786-0 renal = tested on: 786-0 renal
A549 NSCLC = tested on: A549 NSCLC
BT-549 breast = tested on: BT-549 breast
CAKI-1 renal = tested on: CAKI-1 renal
CCRF-CEM leukemia = tested on: CCRF-CEM leukemia
COLO 205 colon = tested on: COLO 205 colon
DU-145 prostate = tested on: DU-145 prostate
EKVX NSCLC = tested on: EKVX NSCLC
HCT-116 colon = tested on: HCT-116 colon
HL-60(TB) leukemia = tested on: HL-60(TB) leukemia
HOP-62 NSCLC = tested on: HOP-62 NSCLC
HOP-92 NSCLC = tested on: HOP-92 NSCLC
HS 578T breast = tested on: HS 578T breast
HT29 colon = tested on: HT29 colon
K-562 leukemia = tested on: K-562 leukemia
KM12 colon = tested on: KM12 colon
LOX IMVI melanoma = tested on: LOX IMVI melanoma
M14 melanoma = tested on: M14 melanoma
MALME-3M melanoma = tested on: MALME-3M melanoma
MCF7 breast = tested on: MCF7 breast
MDA-MB-231 breast = tested on: MDA-MB-231 breast
NCI-H23 lung = tested on: NCI-H23 lung
NCI-H322M lung = tested on: NCI-H322M lung
NCI-H460 NSCLC = tested on: NCI-H460 NSCLC
NCI-H522 lung = tested on: NCI-H522 lung
NCI/ADR-RES ovarian = tested on: NCI/ADR-RES ovarian
OVCAR-3 ovarian = tested on: OVCAR-3 ovarian
OVCAR-4 ovarian = tested on: OVCAR-4 ovarian
OVCAR-5 ovarian = tested on: OVCAR-5 ovarian
OVCAR-8 ovarian = tested on: OVCAR-8 ovarian
PC-3 prostate = tested on: PC-3 prostate
RPMI-8226 leukemia = tested on: RPMI-8226 leukemia
RXF 393 renal = tested on: RXF 393 renal
SF-268 CNS = tested on: SF-268 CNS
SF-539 CNS = tested on: SF-539 CNS
SK-MEL-2 melanoma = tested on: SK-MEL-2 melanoma
SK-MEL-28 melanoma = tested on: SK-MEL-28 melanoma
SK-MEL-5 melanoma = tested on: SK-MEL-5 melanoma
SK-OV-3 ovarian = tested on: SK-OV-3 ovarian
SN12C renal = tested on: SN12C renal
SNB-19 CNS = tested on: SNB-19 CNS
SNB-75 CNS = tested on: SNB-75 CNS
SR leukemia = tested on: SR leukemia
SW-620 colon = tested on: SW-620 colon
T-47D breast = tested on: T-47D breast
UACC-257 melanoma = tested on: UACC-257 melanoma
UACC-62 melanoma = tested on: UACC-62 melanoma

`CC(C)n1cc(-c2ccc3c(c2)N(C)CC3)c2c(NS(=O)(=O)c3ccn(C)n3)ccnc21` was tested, and the GI50 ([…]-0 renal) was greater than 100 µM, the TGI (786-0 renal) was greater than 100 µM and the GI50 (A549 NSCLC) was 47.1 µM. The TGI (A549 NSCLC) was greater than 100 µM, the GI50 (BT-549 breast) was greater than 100 µM and the TGI (BT-549 breast) was greater than 100 µM. It also gave a GI50 (CAKI-1 renal) greater than 100 µM, a TGI (CAKI-1 renal) greater than 100 µM and a GI50 (CCRF-CEM leukemia) of 45.3 µM. For the same compound, the TGI (CCRF-CEM leukemia) was greater than 100 µM, the GI50 (COLO 205 colon) was greater than 78.9 µM and the TGI (COLO 205 colon) was greater than 100 µM. It also gave a GI50 (DU-145 prostate) greater than 70.7 µM, a TGI (DU-145 prostate) greater than 100 µM and a GI50 (EKVX NSCLC) of 75.6 µM. The TGI (EKVX NSCLC) was greater than 100 µM, the GI50 (HCT-116 colon) was greater than 100 µM and the TGI (HCT-116 colon) was greater than 100 µM. It also gave a GI50 (HL-60(TB) leukemia) of 33.1 µM, a TGI (HL-60(TB) leukemia) greater than 61.4 µM and a GI50 (HOP-62 NSCLC) greater than 78.1 µM. The TGI (HOP-62 NSCLC) was greater than 100 µM, the GI50 (HOP-92 NSCLC) was greater than 62.9 µM and the TGI (HOP-92 NSCLC) was greater than 100 µM. For the same compound, the GI50 (HS 578T breast) was 69.3 µM, the TGI (HS 578T breast) was greater than 100 µM and the GI50 (HT29 colon) was greater than 77.2 µM. It also gave a TGI (HT29 colon) greater than 100 µM, a GI50 (K-562 leukemia) of 53.2 µM and a TGI (K-562 leukemia) greater than 100 µM. It also gave a GI50 (KM12 colon) of 78 µM, a TGI (KM12 colon) greater than 100 µM and a GI50 (LOX IMVI melanoma) of 65.8 µM. The TGI (LOX IMVI melanoma) was greater than 100 µM, the GI50 (M14 melanoma) was greater than 100 µM and the TGI (M14 melanoma) was greater than 100 µM. The GI50 (MALME-3M melanoma) was greater than 100 µM, the TGI (MALME-3M melanoma) was greater than 100 µM and the GI50 (MCF7 breast) was 56.3 µM. It also gave a TGI (MCF7 breast) greater than 100 µM, a GI50 (MDA-MB-231 breast) greater than 68.8 µM and a TGI (MDA-MB-231 breast) greater than 100 µM. It also gave a GI50 (NCI-H23 lung) greater than 70 µM, a TGI (NCI-H23 lung) greater than 100 µM and a GI50 (NCI-H322M lung) greater than 100 µM. For the same compound, the TGI (NCI-H322M lung) was greater than 100 µM, the GI50 (NCI-H460 NSCLC) was greater than 85.7 µM and the TGI (NCI-H460 NSCLC) was greater than 100 µM. It also gave a GI50 (NCI-H522 lung) greater than 80.4 µM, a TGI (NCI-H522 lung) greater than 100 µM and a GI50 (NCI/ADR-RES ovarian) of 61.2 µM. The TGI (NCI/ADR-RES ovarian) was greater than 100 µM, the GI50 (OVCAR-3 ovarian) was 40.5 µM and the TGI (OVCAR-3 ovarian) was greater than 87.6 µM. For the same compound, the GI50 (OVCAR-4 ovarian) was 59.8 µM, the TGI (OVCAR-4 ovarian) was greater than 100 µM and the GI50 (OVCAR-5 ovarian) was greater than 100 µM. It also gave a TGI (OVCAR-5 ovarian) greater than 100 µM, a GI50 (OVCAR-8 ovarian) greater than 70.4 µM and a TGI (OVCAR-8 ovarian) greater than 100 µM. For the same compound, the GI50 (PC-3 prostate) was 66.7 µM, the TGI (PC-3 prostate) was greater than 100 µM and the GI50 (RPMI-8226 leukemia) was 21.8 µM. The TGI (RPMI-8226 leukemia) was 52.9 µM, the GI50 (RXF 393 renal) was 51.2 µM and the TGI (RXF 393 renal) was greater than 100 µM. For the same compound, the GI50 (SF-268 CNS) was greater than 100 µM, the TGI (SF-268 CNS) was greater than 100 µM and the GI50 (SF-539 CNS) was greater than 100 µM. For the same compound, the TGI (SF-539 CNS) was greater than 100 µM, the GI50 (SK-MEL-2 melanoma) was greater than 100 µM and the TGI (SK-MEL-2 melanoma) was greater than 100 µM. The GI50 (SK-MEL-28 melanoma) was greater than 93.5 µM, the TGI (SK-MEL-28 melanoma) was greater than 100 µM and the GI50 (SK-MEL-5 melanoma) was greater than 100 µM. For the same compound, the TGI (SK-MEL-5 melanoma) was greater than 100 µM, the GI50 (SK-OV-3 ovarian) was greater than 52.6 µM and the TGI (SK-OV-3 ovarian) was greater than 85.4 µM. It also gave a GI50 (SN12C renal) greater than 100 µM, a TGI (SN12C renal) greater than 100 µM and a GI50 (SNB-19 CNS) greater than 100 µM. It also gave a TGI (SNB-19 CNS) greater than 100 µM, a GI50 (SNB-75 CNS) greater than 88.1 µM and a TGI (SNB-75 CNS) greater than 100 µM. The GI50 (SR leukemia) was 36.5 µM, the TGI (SR leukemia) was greater than 100 µM and the GI50 (SW-620 colon) was greater than 51.5 µM. For the same compound, the TGI (SW-620 colon) was greater than 81.7 µM, the GI50 (T-47D breast) was 50.9 µM and the TGI (T-47D breast) was greater than 100 µM. For the same compound, the GI50 (UACC-257 melanoma) was greater than 100 µM, the TGI (UACC-257 melanoma) was greater than 100 µM and the GI50 (UACC-62 melanoma) was 63.4 µM. The TGI (UACC-62 melanoma) was greater than 100 µM.
